Results as given in US9371281B2, “Indole derivatives as inhibitors of histone deacetylase” (Pharmacyclics LLC, priority 2006, dated 2016).

Tests used:
Format in all cases: biochemical
HDAC8 = biological target: T1, HDAC8 (Homo sapiens, UniProt Q9BY41); assay: Inhibition of HDAC8 deacetylase activity in vitro
T1 sequence (Q9BY41 1-377): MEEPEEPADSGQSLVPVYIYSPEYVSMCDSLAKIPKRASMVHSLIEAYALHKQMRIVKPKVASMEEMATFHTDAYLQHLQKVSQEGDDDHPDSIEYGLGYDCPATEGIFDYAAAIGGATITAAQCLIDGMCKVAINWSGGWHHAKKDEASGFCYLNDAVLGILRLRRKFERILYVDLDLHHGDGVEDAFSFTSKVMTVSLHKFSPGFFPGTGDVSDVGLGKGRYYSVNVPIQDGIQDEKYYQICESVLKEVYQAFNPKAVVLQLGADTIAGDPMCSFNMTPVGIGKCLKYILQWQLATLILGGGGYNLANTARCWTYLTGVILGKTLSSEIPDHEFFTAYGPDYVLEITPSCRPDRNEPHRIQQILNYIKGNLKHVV

HDAC1 = HDAC1 (Homo sapiens, UniProt Q13547); assay: Inhibition of HDAC1 deacetylase activity in vitro; conditions: ratio of IC50 values
HDAC2 = HDAC2 (Homo sapiens, UniProt Q92769); assay: Inhibition of HDAC2 deacetylase activity in vitro; conditions: ratio of IC50 values
HDAC3 = HDAC3 (Homo sapiens, UniProt O15379); assay: Inhibition of HDAC3 deacetylase activity in vitro; conditions: ratio of IC50 values
HDAC6 = HDAC6 (Homo sapiens, UniProt Q9UBN7); assay: Inhibition of HDAC6 deacetylase activity in vitro; conditions: ratio of IC50 values
HDAC10 = HDAC10 (Homo sapiens, UniProt Q969S8); assay: Inhibition of HDAC10 deacetylase activity in vitro; conditions: ratio of IC50 values
Sequence of HDAC10 (Q969S8 whole entry): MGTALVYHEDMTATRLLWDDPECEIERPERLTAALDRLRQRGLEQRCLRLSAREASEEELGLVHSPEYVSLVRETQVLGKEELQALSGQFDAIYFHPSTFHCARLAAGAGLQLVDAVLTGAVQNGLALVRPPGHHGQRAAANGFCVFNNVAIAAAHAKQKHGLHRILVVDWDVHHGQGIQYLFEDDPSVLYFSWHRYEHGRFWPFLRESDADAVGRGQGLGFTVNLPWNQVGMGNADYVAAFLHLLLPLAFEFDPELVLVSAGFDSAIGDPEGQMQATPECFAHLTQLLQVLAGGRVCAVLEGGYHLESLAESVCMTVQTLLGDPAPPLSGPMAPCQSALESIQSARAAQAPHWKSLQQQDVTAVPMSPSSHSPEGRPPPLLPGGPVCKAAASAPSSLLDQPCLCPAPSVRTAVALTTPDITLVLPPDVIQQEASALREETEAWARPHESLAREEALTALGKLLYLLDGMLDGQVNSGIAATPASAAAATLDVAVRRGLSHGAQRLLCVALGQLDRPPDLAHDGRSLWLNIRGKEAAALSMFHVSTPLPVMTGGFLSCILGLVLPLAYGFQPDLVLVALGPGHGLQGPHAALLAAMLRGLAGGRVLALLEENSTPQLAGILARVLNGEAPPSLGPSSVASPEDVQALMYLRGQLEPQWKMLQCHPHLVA

Sequence of HDAC1 (Q13547 whole entry): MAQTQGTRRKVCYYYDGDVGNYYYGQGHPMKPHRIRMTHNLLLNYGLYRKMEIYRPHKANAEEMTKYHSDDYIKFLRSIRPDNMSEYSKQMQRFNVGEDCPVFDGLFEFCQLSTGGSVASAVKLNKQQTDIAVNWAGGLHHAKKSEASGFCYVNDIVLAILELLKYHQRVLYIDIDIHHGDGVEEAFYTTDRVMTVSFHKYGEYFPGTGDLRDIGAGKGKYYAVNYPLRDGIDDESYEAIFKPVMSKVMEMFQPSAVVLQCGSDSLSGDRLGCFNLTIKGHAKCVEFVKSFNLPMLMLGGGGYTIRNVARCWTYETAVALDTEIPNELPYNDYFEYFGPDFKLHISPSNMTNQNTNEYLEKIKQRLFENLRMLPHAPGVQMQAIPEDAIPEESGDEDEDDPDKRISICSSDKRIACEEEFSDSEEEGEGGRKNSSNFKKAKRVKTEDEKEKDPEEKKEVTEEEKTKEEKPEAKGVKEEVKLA
Sequence of HDAC6 (Q9UBN7 whole entry): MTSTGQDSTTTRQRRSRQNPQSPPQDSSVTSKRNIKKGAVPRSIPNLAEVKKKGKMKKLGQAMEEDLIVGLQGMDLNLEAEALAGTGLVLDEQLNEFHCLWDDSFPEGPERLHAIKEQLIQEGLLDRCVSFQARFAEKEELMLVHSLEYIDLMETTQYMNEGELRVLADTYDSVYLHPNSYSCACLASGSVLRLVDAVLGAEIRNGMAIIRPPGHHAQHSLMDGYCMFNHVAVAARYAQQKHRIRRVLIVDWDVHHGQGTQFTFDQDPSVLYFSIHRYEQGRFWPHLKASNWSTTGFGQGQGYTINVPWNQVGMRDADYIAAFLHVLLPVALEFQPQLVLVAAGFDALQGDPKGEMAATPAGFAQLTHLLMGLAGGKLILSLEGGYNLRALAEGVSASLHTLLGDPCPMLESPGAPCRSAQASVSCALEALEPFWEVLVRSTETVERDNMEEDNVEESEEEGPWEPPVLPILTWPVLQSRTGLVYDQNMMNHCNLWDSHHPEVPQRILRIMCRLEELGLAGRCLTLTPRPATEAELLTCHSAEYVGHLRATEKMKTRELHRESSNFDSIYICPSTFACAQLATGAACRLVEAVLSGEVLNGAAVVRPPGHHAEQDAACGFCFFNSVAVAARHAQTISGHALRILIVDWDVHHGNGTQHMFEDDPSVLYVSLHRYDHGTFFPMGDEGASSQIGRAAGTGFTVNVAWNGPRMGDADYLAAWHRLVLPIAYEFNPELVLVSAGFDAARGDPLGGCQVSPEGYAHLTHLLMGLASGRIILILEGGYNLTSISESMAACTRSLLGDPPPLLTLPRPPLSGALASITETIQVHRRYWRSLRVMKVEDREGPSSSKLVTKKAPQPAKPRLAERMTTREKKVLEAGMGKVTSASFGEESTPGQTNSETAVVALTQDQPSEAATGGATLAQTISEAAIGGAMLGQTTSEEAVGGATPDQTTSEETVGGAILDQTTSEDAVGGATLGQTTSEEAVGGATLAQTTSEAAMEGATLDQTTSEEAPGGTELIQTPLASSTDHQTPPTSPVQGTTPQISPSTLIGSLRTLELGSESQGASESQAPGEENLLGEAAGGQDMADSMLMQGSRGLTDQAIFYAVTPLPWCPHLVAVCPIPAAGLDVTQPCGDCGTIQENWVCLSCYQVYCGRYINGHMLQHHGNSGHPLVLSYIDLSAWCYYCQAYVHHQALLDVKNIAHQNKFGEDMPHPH
Sequence of HDAC2 (Q92769 whole entry): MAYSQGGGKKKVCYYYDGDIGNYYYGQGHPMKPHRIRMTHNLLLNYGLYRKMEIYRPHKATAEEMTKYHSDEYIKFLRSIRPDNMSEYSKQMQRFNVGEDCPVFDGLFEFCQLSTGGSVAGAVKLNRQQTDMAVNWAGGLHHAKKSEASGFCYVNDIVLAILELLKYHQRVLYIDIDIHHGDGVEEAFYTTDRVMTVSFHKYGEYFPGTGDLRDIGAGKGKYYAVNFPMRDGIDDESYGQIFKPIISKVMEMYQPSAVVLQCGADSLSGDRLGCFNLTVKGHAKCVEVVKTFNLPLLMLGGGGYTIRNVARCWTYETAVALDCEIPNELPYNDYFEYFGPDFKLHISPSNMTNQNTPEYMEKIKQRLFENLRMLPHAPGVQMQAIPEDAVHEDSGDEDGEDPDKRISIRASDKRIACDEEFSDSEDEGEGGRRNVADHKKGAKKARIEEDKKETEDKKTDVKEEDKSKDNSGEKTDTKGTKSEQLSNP
Sequence of HDAC3 (O15379 whole entry): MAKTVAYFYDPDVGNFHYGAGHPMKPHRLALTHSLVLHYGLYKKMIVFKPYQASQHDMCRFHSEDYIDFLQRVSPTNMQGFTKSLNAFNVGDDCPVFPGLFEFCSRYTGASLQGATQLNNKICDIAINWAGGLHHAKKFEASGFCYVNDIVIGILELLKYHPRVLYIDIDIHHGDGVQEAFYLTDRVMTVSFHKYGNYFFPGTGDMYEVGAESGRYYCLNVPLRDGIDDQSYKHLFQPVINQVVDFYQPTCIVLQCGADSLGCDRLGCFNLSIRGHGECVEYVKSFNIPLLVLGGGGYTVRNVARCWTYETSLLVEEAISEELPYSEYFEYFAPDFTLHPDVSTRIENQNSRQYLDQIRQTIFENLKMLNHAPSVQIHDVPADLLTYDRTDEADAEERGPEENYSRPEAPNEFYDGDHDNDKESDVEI
Sequence of HDAC3 (Q9Y618 389-480 partner limits assumed): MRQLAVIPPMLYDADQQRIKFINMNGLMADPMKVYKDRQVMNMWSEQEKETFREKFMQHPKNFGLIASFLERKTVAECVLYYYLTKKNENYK

| IC50 (HDAC8) [nM] | HDAC-1/HDAC-8 (HDAC1) | HDAC-2/HDAC-8 (HDAC2) | HDAC-3/HDAC-8 (HDAC3) | HDAC-6/HDAC-8 (HDAC6) | HDAC-10/HDAC-8 (HDAC10) | Compound |
| --- | --- | --- | --- | --- | --- | --- |
| < 100 | A (A >10 and <100) | – | – | – | – | O=C(NO)c1ccc2ccn(Cc3ccc(Cl)c(Cl)c3)c2c1 [Compound 1, 1-(3,4-dichloro-phenylmethyl)-1H-indole-6-carboxylic acid hydroxyamide] |
| < 100 | A (A >10 and <100) | – | – | – | – | Cc1ccccc1Cn1ccc2ccc(C(=O)NO)cc21 [Compound 2, 1-(2-methyl-phenylmethyl)-1H-indole-6-carboxylic acid hydroxyamide] |
| > 100 | A (A >10 and <100) | – | – | – | – | COc1cc(Cn2ccc3ccc(C(=O)NO)cc32)cc(OC)c1OC [Compound 3, 1-(3,4,5-trimethoxy-phenylmethyl)-1H-indole-6-carboxylic acid hydroxyamide] |
| < 100 | A (A >10 and <100) | – | – | – | – | O=C(NO)c1ccc2ccn(Cc3cccc(F)c3)c2c1 [Compound 4, 1-(3-fluoro-phenylmethyl)-1H-indole-6-carboxylic acid hydroxyamide] |
| < 100 | A (A >10 and <100) | – | – | – | – | Cc1cccc(Cn2ccc3ccc(C(=O)NO)cc32)c1 [Compound 5, 1-(3-methyl-phenylmethyl)-1H-indole-6-carboxylic acid hydroxyamide] |
| < 100 | A (A >10 and <100) | – | – | – | – | O=C(NO)c1ccc2ccn(Cc3ccccc3)c2c1 [Compound 6, 1-(benzyl)-1H-indole-6-carboxylic acid hydroxyamide] |
| < 100 | A (A >10 and <100) | – | – | – | – | COc1cc(Cn2ccc3ccc(C(=O)NO)cc32)cc(OC)c1 [Compound 7, 1-(3,5-dimethoxy-phenylmethyl)-1H-indole-6-carboxylic acid hydroxyamide] |
| < 100 | A (A >10 and <100) | – | – | – | – | CC(c1ccccc1)n1ccc2ccc(C(=O)NO)cc21 (stereo not shown) [Compound 8, 1-(1-methyl-1-phenylmethyl)-1H-indole-6-carboxylic acid hydroxyamide] |
| < 100 | A (A >10 and <100) | – | – | – | – | O=C(NO)c1ccc2ccn(Cc3ccc(F)cc3)c2c1 [Compound 9, 1-(4-fluoro-phenylmethyl)-1H-indole-6-carboxylic acid hydroxyamide] |
| < 100 | A (A >10 and <100) | – | – | – | – | O=C(NO)c1ccc2ccn(Cc3ccccc3F)c2c1 [Compound 10, 1-(2-fluoro-phenylmethyl)-1H-indole-6-carboxylic acid hydroxyamide] |
| < 100 | A (A >10 and <100) | – | – | – | – | O=C(NO)c1ccc2ccn(Cc3ccccc3Cl)c2c1 [Compound 11, 1-(2-chloro-phenylmethyl)-1H-indole-6-carboxylic acid hydroxyamide] |
| < 100 | A (A >10 and <100) | – | – | – | – | COc1cccc(Cn2ccc3ccc(C(=O)NO)cc32)c1 [Compound 12, 1-(3-methoxy-phenylmethyl)-1H-indole-6-carboxylic acid hydroxyamide] |
| < 100 | A (A >10 and <100) | – | – | – | – | O=C(NO)c1ccc2ccn(Cc3ccc4ccccc4c3)c2c1 [Compound 13, 1-(naphth-2-ylmethyl)-1H-indole-6-carboxylic acid hydroxyamide] |
| < 100 | A (A >10 and <100) | – | – | – | – | O=C(NO)c1ccc2ccn(CCCc3ccccc3)c2c1 [Compound 14, 1-(3-phenylpropyl)-1H-indole-6-carboxylic acid hydroxyamide] |
| < 100 | A (A >10 and <100) | – | – | – | – | O=C(NO)c1ccc2ccn(CC3CCCCC3)c2c1 [Compound 15, 1-(cyclohexylmethyl)-1H-indole-6-carboxylic acid hydroxyamide] |
| < 100 | B (B >100) | – | – | – | – | O=C(NO)c1ccc2ccn(CC=Cc3ccccc3)c2c1 [Compound 16, 1-[1-(phenyl)-propen-3-yl]-1H-indole-6-carboxylic acid hydroxyamide] |
| < 100 | B (B >100) | – | – | – | – | O=C(NO)c1ccc2ccn(Cc3ccc(OC(F)(F)F)cc3)c2c1 [Compound 17, 1-[4-(trifluoromethoxy)-phenylmethyl]-1H-indole-6-carboxylic acid hydroxyamide] |
| < 100 | B (B >100) | – | – | – | – | O=C(NO)c1ccc2ccn(Cc3ccc(Cl)cc3)c2c1 [Compound 18, 1-(4-chloro-phenylmethyl)-1H-indole-6-carboxylic acid hydroxyamide] |
| < 100 | B (B >100) | – | – | – | – | O=C(NO)c1ccc2ccn(Cc3ccc4nonc4c3)c2c1 [Compound 19, 1-(benzo[2,1,3]oxadiazol-5-ylmethyl)-1H-indole-6-carboxylic acid hydroxyamide] |
| < 100 | B (B >100) | – | – | – | – | Cc1ccc(Cn2ccc3ccc(C(=O)NO)cc32)cc1 [Compound 20, 1-(4-methyl-phenylmethyl)-1H-indole-6-carboxylic acid hydroxyamide] |
| < 100 | B (B >100) | – | – | – | – | COc1ccc(Cn2ccc3ccc(C(=O)NO)cc32)cc1F [Compound 21, 1-(3-fluoro-4-methoxy-phenylmethyl)-1H-indole-6-carboxylic acid hydroxyamide] |
| < 100 | B (B >100) | – | – | – | – | O=C(NO)c1ccc2ccn(Cc3ccc(OC(F)F)cc3)c2c1 [Compound 22, 1-[4-(difluoromethoxy)-phenylmethyl]-1H-indole-6-carboxylic acid hydroxyamide] |
| < 100 | A (A >10 and <100) | B (B >100) | A (A >10 and <100) | A (A >10 and <100) | B (B >100) | Cn1cc(Cc2ccc([N+](=O)[O-])cc2)c2cc(C(=O)NO)ccc21 [Compound 34, 1-methyl-3-(4-nitro-phenylmethyl)-1H-indole-5-carboxylic acid hydroxyamide] |
| < 100 | A (A >10 and <100) | – | – | – | – | CCn1cc(Cc2ccccc2)c2cc(C(=O)NO)ccc21 [Compound 35, 1-ethyl-3-(phenylmethyl)-1H-indole-5-carboxylic acid hydroxyamide] |
| < 100 | A (A >10 and <100) | – | – | – | – | Cn1cc(Cc2ccc(NC(=O)c3ccccc3)cc2)c2cc(C(=O)NO)ccc21 [Compound 36, 1-methyl-3-[4-(phenylcarbonylamino)-phenylmethyl]-1H-indole-5-carboxylic acid hydroxyamide] |
| < 100 | A (A >10 and <100) | – | – | – | – | CC(C)n1cc(Cc2ccccc2)c2cc(C(=O)NO)ccc21 [Compound 37, 1-isopropyl-3-(phenylmethyl)-1H-indole-5-carboxylic acid hydroxyamide] |
| < 100 | A (A >10 and <100) | – | – | – | – | Cn1cc(Cc2ccc(N)cc2)c2cc(C(=O)NO)ccc21 [Compound 38, 1-methyl-3-(4-amino-phenylmethyl)-1H-indole-5-carboxylic acid hydroxyamide] |
| < 100 | B (B >100) | B (B >100) | A (A >10 and <100) | A (A >10 and <100) | B (B >100) | Cn1cc(Cc2ccc(F)cc2)c2cc(C(=O)NO)ccc21 [Compound 39, 1-methyl-3-(4-fluoro-phenylmethyl)-1H-indole-5-carboxylic acid hydroxyamide] |
